This note sets out measurements from patent publication US11376241B2, “Aryl hydrocarbon receptor (AhR) modulator compounds” (PHENEX PHARMACEUTICALS AG, priority 2017, dated 2022).

In this test the target is T1, AhR (Homo sapiens, UniProt P35869).
T1 construct: The HepG2 CYP1A1-Luc cells do express basal luciferase activity that can be increased via potent AhR agonists or decreased via potent AhR antagonists; endogenous in cells; host or cells: HepG2 (DSMZ #ACC 180) stably carrying a human CYP1A1 promoter-firefly luciferase reporter
T1 sequence (P35869 11-848): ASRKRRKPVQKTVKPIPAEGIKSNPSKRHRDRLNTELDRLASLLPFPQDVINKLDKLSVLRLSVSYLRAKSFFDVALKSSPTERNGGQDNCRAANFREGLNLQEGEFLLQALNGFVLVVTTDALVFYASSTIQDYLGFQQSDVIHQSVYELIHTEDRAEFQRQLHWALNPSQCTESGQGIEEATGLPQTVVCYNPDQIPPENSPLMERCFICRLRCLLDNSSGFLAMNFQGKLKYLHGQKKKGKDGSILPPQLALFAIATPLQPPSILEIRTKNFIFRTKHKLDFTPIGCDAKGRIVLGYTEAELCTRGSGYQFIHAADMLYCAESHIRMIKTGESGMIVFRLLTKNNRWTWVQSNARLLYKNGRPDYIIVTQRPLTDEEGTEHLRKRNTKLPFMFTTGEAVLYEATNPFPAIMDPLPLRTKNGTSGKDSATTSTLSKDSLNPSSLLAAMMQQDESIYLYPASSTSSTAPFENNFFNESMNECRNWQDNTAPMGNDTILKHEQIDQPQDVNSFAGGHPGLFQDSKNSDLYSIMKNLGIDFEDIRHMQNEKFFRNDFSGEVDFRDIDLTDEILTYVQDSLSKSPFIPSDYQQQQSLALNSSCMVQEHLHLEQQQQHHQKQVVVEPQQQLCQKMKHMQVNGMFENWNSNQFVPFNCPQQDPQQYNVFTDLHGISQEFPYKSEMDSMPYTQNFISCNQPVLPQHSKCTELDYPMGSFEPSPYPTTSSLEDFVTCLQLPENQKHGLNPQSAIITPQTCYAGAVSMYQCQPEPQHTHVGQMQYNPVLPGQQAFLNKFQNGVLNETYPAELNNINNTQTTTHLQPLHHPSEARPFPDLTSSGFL
As to the kind of experiment: AhR direct luciferase reporter assay in HepG2 cells (HepG2 CYP1A1-LUC). To be noted: 18 hours, luciferase activity, no exogenous AhR agonist or 10 nM VAF347, read-out: AhR potency (AhR antagonistic potency, IC50). It counts as cell-based. The source says:
AhR direct luciferase reporter assay in HepG2 cells.
A stable cell line (HepG2 CYP1A1-LUC) was used in which part of the promoter region of the human CYP1A1 gene is stably integrated into the genome of human HepG2 hepatocytes (DSZM #ACC 180) in front of a Photinus pyralis Firefly Luciferase gene. A 1210 bp fragment comprising part of the human CYP1A1 promoter was isolated via SacI and BglII restriction digestion from Lightswitch Clone S714555 (SwitchGearGenomics) and inserted between the SacI and BglII sites in pGL4.30 (Promega #E8481) in front of the Firefly Luciferase gene. The resulting vector was linearized with NotI, transfected into HepG2 cells (DSMZ #ACC 180) and stably transfected clones selected with 250 μg/ml Hygromycin B. After repetitive rounds of subcloning and testing for robustly regulated luciferase activity after AhR agonist stimulation, a stable clonal HepG2 CYP1A1-Luc cell line was selected.
The HepG2 CYP1A1-Luc cells do express basal luciferase activity that can be increased via potent AhR agonists or decreased via potent AhR antagonists, added to the growth medium of the cells.
In typical reporter assays performed with this cell line, cells are grown in 96-well plates and AhR modulators are titrated into the growth medium in serial dilutions in RPMI-1640 Medium (Sigma #R7509) supplemented with 8.6% fetal calf serum (Sigma #F7524) and containing either no exogenous AhR agonist or 10 nM of the potent AhR agonist VAF347 (Calbiochem #182690). Cells are further cultivated for 18 hours and luciferase activities are determined from extracts of cells in buffers containing D-Luciferine and ATP using a LUMIstar Optima microplate Luminometer from BMG Labtech.
(In general: A reporter such as luciferase makes a cellular process visible.)

As for `Cc1ccccc1-c1cc2cnc(NC(=O)c3ncnn3C)cc2[nH]1` [2/1], the IC50 – broadly, the concentration that gives 50% inhibition – is under 100 nM. For the compound `Cn1ncnc1C(=O)Nc1cc2[nH]c(-c3c(Cl)cccc3Cl)cc2cn1` [2/2], the IC50 fell in the range of 100 to 1000 nM.

As to `Cn1ncnc1C(=O)Nc1cc2[nH]c(-c3ccccc3C(F)F)c(F)c2cn1` [2/3], the IC50 was under 100 nM.

In the case of `Cn1ncnc1C(=O)Nc1cc2[nH]c(-c3ccccc3C(F)F)c(Cl)c2cn1` [2/4], the IC50 is under 100 nM. The figure for `Cn1ncnc1C(=O)Nc1cc2[nH]c(-c3cc(C(F)F)ccc3F)cc2cn1` [2/5] is 100 to 1000 nM; for `Cn1ncnc1C(=O)Nc1cc2[nH]c(-c3cc(C#N)ccc3C(F)(F)F)cc2cn1` [2/6] it is under 100 nM; for `Cn1ncnc1C(=O)Nc1cc2[nH]c(-c3ccccc3C(C)(C)O)cc2cn1` [2/7] it is over 1000 nM. For `Cn1cncc1C(=O)Nc1cc2[nH]c(-c3ccccc3C(F)F)cc2cn1` [4/1] the value was 100 to 1000 nM; for `Cn1ccnc1C(=O)Nc1cc2[nH]c(-c3ccccc3C(F)F)cc2cn1` [4/2], under 100 nM; for `Cc1ocnc1C(=O)Nc1cc2[nH]c(-c3ccccc3C(F)F)cc2cn1` [4/3], under 100 nM. For `Cc1ccccc1-c1cc2cnc(NC(=O)c3ccnn3C)cc2[nH]1` [Example 1, 1-Methyl-N-(2-(o-tolyl)-1H-pyrrolo[3,2-c]pyridin-6-yl)-1H-pyrazole-5-carboxamide] the value was 100 to 1000 nM. On to `Cn1nccc1C(=O)Nc1cc2[nH]c(-c3ccccc3C(F)(F)F)cc2cn1` [Example 1/1, 1-Methyl-N-(2-(2-(trifluoromethyl)phenyl)-1H-pyrrolo[3,2-c]pyridin-6-yl)-1H-pyrazole-5-carboxamide], for which the concentration for half-maximal inhibition (IC50) was under 100 nM. For `Cn1ncnc1C(=O)Nc1cc2[nH]c(-c3ccccc3C(F)(F)F)cc2cn1` [Example 1/2, 1-Methyl-N-(2-(2-(trifluoromethyl)phenyl)-1H-pyrrolo[3,2-c]pyridin-6-yl)-1H-1,2,4-triazole-5-carboxamide] the value was under 100 nM; for `O=C(Nc1cc2[nH]c(-c3ccccc3C(F)(F)F)cc2cn1)c1ccccn1` [Example 1/3, N-(2-(2-(Trifluoromethyl)phenyl)-1H-pyrrolo[3,2-c]pyridin-6-yl) picolinamide], under 100 nM; for `Cn1ncnc1C(=O)Nc1cc2[nH]c(-c3cc(F)ccc3C(F)(F)F)cc2cn1` [Example 1/4, N-(2-(5-Fluoro-2-(trifluoromethyl)phenyl)-1H-pyrrolo[3,2-c]pyridin-6-yl)-1-methyl-1H-1,2,4-triazole-5-carboxamide], under 100 nM. For `Cn1cnnc1C(=O)Nc1cc2[nH]c(-c3ccccc3C(F)F)cc2cn1` [Example 1/5, N-(2-(2-(Difluoromethyl)phenyl)-1H-pyrrolo[3,2-c]pyridin-6-yl)-4-methyl-4H-1,2,4-triazole-3-carboxamide] the value was over 1000 nM; for `Cn1ncnc1C(=O)Nc1cc2[nH]c(-c3ccccc3C(F)F)cc2cn1` [Example 1/6, N-(2-(2-(Difluoromethyl)phenyl)-1H-pyrrolo[3,2-c]pyridin-6-yl)-1-methyl-1H-1,2,4-triazole-5-carboxamide], under 100 nM; for `Cn1cnnc1C(=O)Nc1cc2[nH]c(-c3cc(F)ccc3C(F)(F)F)cc2cn1` [Example 1/7, N-(2-(5-Fluoro-2-(trifluoromethyl)phenyl)-1H-pyrrolo[3,2-c]pyridin-6-yl)-4-methyl-4H-1,2,4-triazole-3-carboxamide], under 100 nM.

Regarding `Cn1ncnc1C(=O)Nc1cc2[nH]c(-c3cc(F)ccc3C(F)F)cc2cn1` [Example 1/8, N-(2-(2-(Difluoromethyl)-5-fluorophenyl)-1H-pyrrolo[3,2-c]pyridin-6-yl)-1-methyl-1H-1,2,4-triazole-5-carboxamide], the 50% inhibitory concentration (IC50) is under 100 nM. The figure for `Cn1ncnc1C(=O)Nc1cc2[nH]c(-c3ccoc3C(F)F)cc2cn1` [Example 1/9, N-(2-(2-(Difluoromethyl)furan-3-yl)-1H-pyrrolo[3,2-c]pyridin-6-yl)-1-methyl-1H-1,2,4-triazole-5-carboxamide] is 100 to 1000 nM; for `Cn1ncnc1C(=O)Nc1cc2[nH]c(-c3cc(C(F)(F)F)ccc3C(F)(F)F)cc2cn1` [Example 1/10, N-(2-(2,5-Bis(trifluoromethyl)phenyl)-1H-pyrrolo[3,2-c]pyridin-6-yl)-1-methyl-1H-1,2,4-triazole-5-carboxamide] it is under 100 nM; for `Cn1ncnc1C(=O)Nc1cc2[nH]c(-c3cc(C4CC4)ccc3C(F)(F)F)cc2cn1` [Example 1/11, N-(2-(5-Cyclopropyl-2-(trifluoromethyl)phenyl)-1H-pyrrolo[3,2-c]pyridin-6-yl)-1-methyl-1H-1,2,4-triazole-5-carboxamide] it is under 100 nM. The figure for `Cn1ncnc1C(=O)Nc1cc2[nH]c(-c3cc(F)c(F)cc3C(F)F)cc2cn1` [Example 1/12, N-(2-(2-(Difluoromethyl)-4,5-difluorophenyl)-1H-pyrrolo[3,2-c]pyridin-6-yl)-1-methyl-1H-1,2,4-triazole-5-carboxamide] is 100 to 1000 nM; for `CCc1ccc(C(F)(F)F)c(-c2cc3cnc(NC(=O)c4ncnn4C)cc3[nH]2)c1` [Example 1/13, N-(2-(5-Ethyl-2-(trifluoromethyl)phenyl)-1H-pyrrolo[3,2-c]pyridin-6-yl)-1-methyl-1H-1,2,4-triazole-5-carboxamide] it is under 100 nM; for `CC(C)c1ccccc1-c1cc2cnc(NC(=O)c3ncnn3C)cc2[nH]1` [Example 2, N-(2-(2-Isopropylphenyl)-1H-pyrrolo[3,2-c]pyridin-6-yl)-1-methyl-1H-1,2,4-triazole-5-carboxamide] it is 100 to 1000 nM. With `CN(C(=O)c1ncnn1C)c1cc2[nH]c(-c3cc(F)ccc3C(F)F)cc2cn1` [Example 3, N-(2-(2-(Difluoromethyl)-5-fluorophenyl)-1H-pyrrolo[3,2-c]pyridin-6-yl)-N,1-dimethyl-1H-1,2,4-triazole-5-carboxamide], the IC50 fell in the range of 100 to 1000 nM. For the compound `Cc1scnc1C(=O)Nc1cc2[nH]c(-c3ccccc3C(F)F)cc2cn1` [Example 4, N-(2-(2-(Difluoromethyl)phenyl)-1H-pyrrolo[3,2-c]pyridin-6-yl)-5-methylthiazole-4-carboxamide], the concentration for half-maximal inhibition (IC50) is under 100 nM. For `Cn1ncnc1C(=O)Nc1cc2[nH]c(-c3ccccc3C(F)F)c(C#N)c2cn1` [Example 5, N-(3-Cyano-2-(2-(difluoromethyl)phenyl)-1H-pyrrolo[3,2-c]pyridin-6-yl)-1-methyl-1H-1,2,4-triazole-5-carboxamide] the value was 100 to 1000 nM.
